Assay results published in patent US20250170141A1, “MRGPRX2 MODULATORS AND RELATED METHODS OF TREATMENT” (Escient Pharmaceuticals, Inc., priority 2023, published 2025).
pIC50: −log10 of the molar value. ≈ marks a conversion by molar mass, not a printed value. Read-outs that look alike come from different tables or passages of the source.

Assays:
[1] = Mouse Pharmacokinetic Studies (50 mg/kg oral gavage, plasma LC-MS/MS); assay type: in vivo; details: male C57BL/6 mice, non-fasted
Description: Compounds were formulated in 5% DMSO, 5% Solutol, and 90% PBS without Ca and Mg (pH 7.4) at a concentration of […]. Male C57BL/6 mice (n=6/compound) were administered a 50 mg/kg dose of each compound by oral gavage under a non-fasted condition. Blood samples were collected via the Submandibular vein onto K2-EDTA at 0.5, 1, 2, 4, 8 and 24 hours after dosing, and plasma was prepared and stored at −80° C. until analysis. Plasma sample preparation for analysis was done by protein precipitation using acetonitrile (including Verapamil as an internal standard) followed by centrifugation. Compound concentrations were determined in extracted plasma using LC-MS/MS relative to a 12-point standard curve covering the 1 to 4000 nM range. Non-compartmental analysis using Phoenix WinNonlin was used to estimate pharmacokinetic parameters including area under the curve, clearance, and half-life. The administered dose was confirmed by analysis of residual dosing material by UPLC-UV relative to a single point calibration sample.

Human LAD2 cells = test: Mast Cell Beta-Hexosaminidase Release Assay (LAD2 cells, 500 nM Cortistatin-14); assay type: cell-based; details: read-out: MRGPRX2 Antagonist Activity
Description: Human LAD2 cells (NIH) were maintained in an incubator at 37° C. with 5% CO2 and cultured in StemPro-34 serum-free media (Gibco 10639011) supplemented with 2 mM L-glutamine, 100 U/ml penicillin, […] streptomycin and 100 ng/ml SCF (Invitrogen PEP0860), at a concentration of 2-5×10^5 cells/mL, with hemidepletion every 1-2 weeks.
Cells were transferred to SCF-Free medium at 2.5×10^5 cells/mL and kept in an incubator overnight. On the day of the assay, cells were washed twice in Assay Buffer (final concentrations 10 mM HEPES, 137 mM NaCl, 5.6 mM D-glucose, 2.7 mM KCl, 1 mM MgCl, 1.8 mM CalCl2, 0.4 mM Na2HPO4·7H2O, 0.04% BSA, pH=7.4) and plated in a 96-well v-bottom plate at 20,000 cells per well in 80 μL Assay Buffer. Antagonist compounds solubilized at 10 mM in DMSO were diluted in Assay Buffer to 10× final desired concentrations as a 10-point curve (10 μM final top concentration with 1:3 serial dilutions) and 10 μL added per well. Plates were then incubated for 1 hour at 37° C. Agonists were diluted in Assay Buffer to 10× desired concentrations and 10 μL of the appropriate agonist added to each well. The final concentration of Cortistatin-14 (Tocris 3374) used in antagonist assays was 500 nM. Final concentrations of DMSO were kept consistent across the plate. Plates were then incubated in a warm air oven for 30 minutes at 37° C., followed by centrifugation at 4° C. for 5 minutes at 450×g. 50 μL supernatant from each well was then transferred to a 96-well flat bottom plate containing 100 μL substrate solution per well (3.5 mg/mL p-Nitrophenyl-N-acetyl-o-D-glucosaminide (Sigma 487052) in Citrate Buffer containing a final concentration of 40 mM Citric Acid, 20 mM Na2HPO4·7H2O, pH=4.5). To the cell pellets left in the remaining assay buffer, 150 μL 0.1% Triton-X-100 was then added to each well, resuspended by pipetting up and down, and 50 μL cell lysates transferred to a second 96-well flat bottom plate containing 100 μL substrate solution per well. Plates containing transferred supernatant and cell lysates were then incubated in a warm air oven for 90 minutes at 37° C. After incubation, 50 μL of 400 mM Glycine buffer (pH 10.7) was added into each well and the plate was read on a Molecular Devices SpectraMax iD5 plate reader (absorbance at 405 nm with reference filter at 620 nm). After background subtraction, the percentage degranulation (percent beta-hexosaminidase release) was calculated as 100×(supernatant values)/(supernatant+lysate values), followed by analysis using GraphPad Prism software to calculate an IC50 value for each compound.
The activity ranges are denoted as follows: “+++++” denotes antagonist activity <100 nM; “++++” denotes antagonist activity between 100 and 500 nM; “+++” denotes activity between 501 and 1000 nM; “++” denotes activity between 1001 and 2500 nM; and “+” denotes activity >2500 nM.

human MRGPRX2 = molecular target: T1, human MRGPRX2 (Homo sapiens, UniProt Q96LB1); test: MRGPRX2 activity: IP-One Gq HTRF assay in CHO cells, antagonism versus 0.3 uM Cortistatin-14; assay type: cell-based; details: versus 0.3 uM Cortistatin-14 agonist, CHO cells expressing human MRGPRX2, read-out: MRGPRX2 Antagonist Activity
T1 construct: expressed in transfected cells; host or cells: CHO cells, stably transfected (G418 and Hygromycin B selection)
T1 sequence (Q96LB1 1-330): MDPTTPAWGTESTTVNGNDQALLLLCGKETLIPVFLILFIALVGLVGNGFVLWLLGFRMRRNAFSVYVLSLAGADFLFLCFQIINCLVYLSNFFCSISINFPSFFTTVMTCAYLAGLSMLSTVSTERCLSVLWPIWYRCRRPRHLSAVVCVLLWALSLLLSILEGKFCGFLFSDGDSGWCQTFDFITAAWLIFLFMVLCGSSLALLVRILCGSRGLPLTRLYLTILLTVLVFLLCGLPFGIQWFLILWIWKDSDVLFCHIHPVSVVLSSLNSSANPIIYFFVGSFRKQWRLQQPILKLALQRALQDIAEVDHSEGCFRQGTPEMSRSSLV
Outline: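 CHO cells stably expressing human MRGPRX2 were treated with a 10-point compound curve (30 uM top, 1:3) plus 0.3 μM Cortistatin-14 in LiCl-containing Tris buffer, pH 8. Incubation was 1 h at 37 °C then 1 h at room temperature; IP-1 was detected by HTRF and IC50 came from the HTRF ratio.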

[2] = Solubility Studies in FaSSIF, FeSSIF, FaSSGF (24 hours, room temperature, UPLC-UV); assay type: physicochemical; details: kinetic from dmso stock, 24 hours at room temperature
Description: Media according to Biorelevant Media protocols was prepared. 10 μL of 10 mM in DMSO stock solutions of test compounds was added to 96-well deep plate. 490 μL of FaSSIF, FeSSIF, or FaSSGF was then added into appropriate wells of 96-well deep plate. The plate was vortexed for 2 minutes then placed on a plate shaker for 24 hours at room temperature. The plate was centrifuged for 20 minutes, then supernatant was collected and filtered with […] syringe filter into UPLC vials for injection into UPLC-UV system. Concentration was calculated with a 3-point standard curve.

[3] = male, C57BL/6, mouse, po, 50 mg/kg
[4] = Mast Cell Beta-Hexosaminidase Release Assay
[5] = Homo sapiens, LAD2, Mast Cell Beta-Hexosaminidase Release Assay
[6] = fassgf or other biorelevant, solubility in FaSSGF, read-out: FaSSGF
[7] = solubility in FaSSIF, read-out: FaSSIF
[8] = solubility in FeSSIF, read-out: FeSSIF

Structure (SMILES) | Cmax ([1]; 50 mg/kg) [µM] | TBC ([1]; 50 mg/kg) [mL/min/kg] | half-life [1, 3] [h] | pIC50 (Human LAD2 cells; [4]) | pIC50 (human MRGPRX2) | pIC50 (Human LAD2 cells; [5]) | T1/2 ([1]; 50 mg/kg) [h] | TBC [1] [mL/min/kg] | Cmax [1, 3] [µM] | solubility kinetic at 24 h [2, 6] [µM] | solubility kinetic at 24 h [2, 7] [µM] | solubility kinetic at 24 h [2, 8] [µM]
CC(c1ccccc1F)c1c(F)ccc2c1NC(NCc1cccc(F)c1)=NS2(=O)=O (single isomer, unassigned) [Compound 10-5A] | 2.8 | 50 | 2.2 | 5.60 to 6.00 | > 7.00 | – | – | – | – | – | – | –
Cc1c(F)cccc1CNC1=NS(=O)(=O)c2ccc(F)c(C(C)c3ccccc3F)c2N1 (single isomer, unassigned) [Compound 10-3A] | 0.37 | 4.3 | 2.5 | – | > 7.00 | 6.30 to 7.00 | – | – | – | – | – | –
Cc1c(F)cccc1CNC1=NS(=O)(=O)c2ccc(F)c(C(C)c3ccccc3F)c2N1 (single isomer, unassigned) [Compound 10-3B] | 4.2 | 41 | – | > 7.00 | > 7.00 | – | 2 | – | – | – | – | –
C[C@H](c1ccccc1F)c1c(F)c(F)cc2c1NC(NCc1ncccc1F)=NS2(=O)=O [Compound 10-6B, (R)-6,7-difluoro-5-(1-(2-fluorophenyl)ethyl)-3-(((3-fluoropyridin-2-yl)methyl)amino)-4H-benzo[e][1,2,4]thiadiazine 1,1-dioxide] | – | – | – | – | 6.30 to 7.00 | 6.30 to 7.00 | – | 33 | 2.7 | – | – | –
CC(c1ccccc1F)c1c(F)ccc2c1NC(NCc1ncccc1F)=NS2(=O)=O (single isomer, unassigned) [Compound 10-1B] | 14 | 9 | – | > 7.00 | > 7.00 | – | 1.8 | – | – | 61 (≈ 27.2 µg/mL) | 133 (≈ 59.4 µg/mL) | 200 (≈ 89.3 µg/mL)
C[C@@H](c1ccccc1F)c1c(F)c(F)cc2c1NC(NCc1ncccc1F)=NS2(=O)=O [Compound 10-6A, (S)-6,7-difluoro-5-(1-(2-fluorophenyl)ethyl)-3-(((3-fluoropyridin-2-yl)methyl)amino)-4H-benzo[e][1,2,4]thiadiazine 1,1-dioxide] | – | – | 2.1 | – | > 7.00 | > 7.00 | – | 11 | 11 | 27 (≈ 12.5 µg/mL) | 30 (≈ 13.9 µg/mL) | 178 (≈ 82.7 µg/mL)
CC(c1ccccc1F)c1c(F)ccc2c1NC(NCc1cccc(F)n1)=NS2(=O)=O (single isomer, unassigned) [Compound 10-2B] | – | 27 | 2.3 | > 7.00 | > 7.00 | – | – | – | 4.4 | 11 (≈ 4.91 µg/mL) | 162 (≈ 72.3 µg/mL) | 186 (≈ 83 µg/mL)
CC(c1ccccc1F)c1c(F)ccc2c1NC(NCc1ncccc1F)=NS2(=O)=O (stereo not drawn) [Compound 9-1, 6-fluoro-5-(1-(2-fluorophenyl)ethyl)-3-(((3-fluoropyridin-2-yl)methyl)amino)-4H-benzo[e][1,2,4]thiadiazine 1,1-dioxide] | – | – | 1.8 | – | > 7.00 | > 7.00 | – | 13 | 8.7 | 19 (≈ 8.48 µg/mL) | 114 (≈ 50.9 µg/mL) | 74 (≈ 33 µg/mL)
CC(c1ccc(F)cc1)c1c(F)ccc2c1NC(NCc1ncccc1F)=NS2(=O)=O (single isomer, unassigned) [Compound 10-4A] | – | 11 | 4.4 | – | > 7.00 | 6.30 to 7.00 | – | – | 9.6 | – | – | –
CC(c1ccc(F)cc1)c1c(F)ccc2c1NC(NCc1ncccc1F)=NS2(=O)=O (single isomer, unassigned) [Compound 10-4B] | 10 | 12 | – | > 7.00 | > 7.00 | – | 2.2 | – | – | 3 (≈ 1.34 µg/mL) | 23 (≈ 10.3 µg/mL) | 37 (≈ 16.5 µg/mL)
CC(c1ccccc1F)c1c(F)ccc2c1NC(NCc1cccc(F)n1)=NS2(=O)=O (single isomer, unassigned) [Compound 10-2A] | 2.7 | 30 | – | 6.00 to 6.30 | > 7.00 | – | 3.0 | – | – | – | – | –
O=S1(=O)N=C(NCc2ncccc2F)Nc2c1ccc(F)c2Oc1ccccc1Cl [Compound 2-1, 5-(2-chlorophenoxy)-6-fluoro-3-(((3-fluoropyridin-2-yl)methyl)amino)-4H-benzo[e][1,2,4]thiadiazine 1,1-dioxide] | – | – | 2.8 | – | > 7.00 | 6.30 to 7.00 | – | 8.8 | 11 | < 12.5 | < 12.5 | < 12.5
CC(c1ccccc1F)c1c(F)ccc2c1NC(NCc1cccc(F)c1)=NS2(=O)=O (single isomer, unassigned) [Compound 10-5B] | 7.1 | 12 | – | > 7.00 | > 7.00 | – | 2.5 | – | – | < 3.1 | 158 (≈ 70.4 µg/mL) | 136 (≈ 60.6 µg/mL)
CC(c1ccccc1F)c1c(F)ccc2c1NC(NCc1ncccc1F)=NS2(=O)=O (single isomer, unassigned) [Compound 10-1A] | 4.6 | 26 | 2.6 | – | > 7.00 | 6.30 to 7.00 | – | – | – | – | – | –
